According to patent publication US11167015B2, “Arginine and its use as a T cell modulator” (INSTITUTE FOR RESEARCH IN BIOMEDICINE, priority 2016, dated 2021):

How the values were obtained:
activated (96 h) T cells = test: Measurements of oxygen consumption rate (Seahorse); type: cell-based, human; conditions: medium supplemented with 3 mM L-arginine, 96 h activated
Experimental: Measurements were performed using a Seahorse XF-24 extracellular flux analyzer (Seahorse Bioscience). Naïve CD4^+ T cells were sorted and activated with plate-bound CD3 and CD28 antibodies in complete medium or medium supplemented with 3 mM L-arginine. Four days later (in the morning), cells were pooled, carefully count and plated (7×10^5 cells/well) in serum-free unbuffered RPMI-1640 medium (Sigma) onto Seahorse cell plates coated with Cell-Tak (BD Bioscience). The serum-free unbuffered medium was not supplemented with L-arginine. Oligomycin (1.4 μM, Sigma), Carbonyl cyanide-4-(trifluoromethoxy)phenylhydrazone (FCCP, 0.6 μM, Sigma) and antimycin (1.4 μM, Sigma) were injected.

human naïve CD4+ T cells = test: CCR7 expression by flow cytometry; type: cell-based; conditions: day 10 after activation, L-arginine supplemented vs control cultures
Experimental: FIG. 4. L-arginine limits human T cell differentiation and endows cells with a high survival capacity in vitro. (A, B) Human naïve CD4^+ T cells were activated in L-Arg medium or Ctrl medium in the presence of 10 ng/ml IL-12. IFN-γ was quantified in culture supernatants after 5 days (A) or after re-activation for 5 h with PMA/Ionomycin (B); n=9 from three donors. (C) Naïve CD4^+ T cells were labeled with CellTrace Violet (CTV) and activated in L-Arg medium or Ctrl medium. On day 10, proliferating CTV^lo T cells were stained with an antibody to CCR7 and analyzed by flow cytometry; n=15 from three donors. (D) Naïve CD4^+ T cells were activated for 5 days in L-Arg or Ctrl medium in the presence of exogenous IL-2, washed extensively and cultured in Ctrl medium in the absence of IL-2. Shown is the percentage of living T cells as determined by Annexin V staining at different time points after IL-2 withdrawal. One representative experiment out of three performed. (E) Same experiment as in (D). Shown is the difference of living activated CD4^+ and CD8^+ T cells 5 days after withdrawal of IL-2; n=46, from sixteen donors (CD4^+ T cells); n=13, from four donors (CD8^+ T cells). […] (K) Effect of norNOHA and BEC on proliferation of CTV-labeled naïve T cells measured 72 h after activation. *p<0.05, **p<0.01, ***p<0.001, ****p<0.0001 (Student's t-test).

mTOR = test: Analysis of phosphorylation levels of 4E-BP and S6K1; type: cell-based, human; conditions: 3 mM L-arginine supplementation, 4 days activated
Experimental: Naïve CD4^+ T cells were activated with plate-bound antibodies to CD3 and CD28. Four days after activation, cells were lysed and analyzed by Western blot with the following antibodies obtained from Cell Signaling Technology. Phospho-p70 S6K(Thr389) #9205; p70 S6 Kinase #9202; Phospho-4E-BP1 (Thr37/46) #2855; 4E-BP1 #9644. Rapamycin (Sigma) was used at 100 nM.

T cell proteome = test: Limited proteolysis and mass spectrometry (structural changes); type: binding, human
B16.OVA melanoma [1] = test: Tumor experiment: in vitro activation of T cells; type: in vivo, C57BL/6 mice; conditions: L-arginine-treated OT-I T cells transferred into B16 OVA tumor bearing mice
Experimental: B16-OVA melanoma cells were cultured in RPMI 1640 plus 10% FCS, 1% penicillin/streptomycin and 2 mM glutamine. Before injection into mice, cells were trypsinized and washed twice in PBS. Then, 5×10^5 cells were subcutaneously injected in the dorsal region of Wt C57BL/6 mice. Ten days post injection, 5×10^6 OT-I cells, that have been activated in vitro as described above, were injected into the tail vein of tumor-bearing mice. The size of tumors was measured in a blinded fashion using calipers.

B16.OVA melanoma [2] = test: Tumor experiment: in vivo priming of T cells, oral L-arginine; parameters: species or system C57BL/6 mice; conditions: mice fed with L-arginine 1.5 mg/g body weight daily vs PBS
Experimental: B16-OVA melanoma cells were cultured and injected into Wt C57BL/6 mice as described above. Five clays post injection, when tumors were very small, mice were γ-irradiated (5 Gy) and 24 hours later they received 4×10^5 OT-I cells intravenously (i.v.). The clay after mice were immunized intraperitoneally (i.p.) with […] peptide (OVA257-264) in Inject Alum Adjuvant (Thermo Fisher Scientific). L-Arg (1.5 g/Kg body weight) or PBS, as control, was daily orally administrated, starting one clay before T cell transfer and until the end of the experiment. The size of tumors was measured in a blinded fashion using calipers.

N=C(N)NCCC[C@H](N)C(=O)O [L-arginine]
mitochondrial spare respiratory capacity (SRC) (activated (96 h) T cells): augmented | oxygen consumption increase (activated (96 h) T cells): 1.7 fold | fraction of proliferating CCR7+ T cells (human naïve CD4+ T cells): higher fraction | phosphorylation levels of two targets of mTOR (p70 S6K1 and 4E-BP) (mTOR): did not change | protein domains affected by structural changes (T cell proteome; 1 mM L-arginine): affect the PHD domain of BAZ1B and the AT-hook DNA-binding domain of PSIP1 | number of proteins (out of 5,856 identified) with structural change exclusively in response to L-arginine (T cell proteome; 1 mM, not affected by D-arginine or L-ornithine, six donors): 20 | anti-tumor response: survival of mice (B16.OVA melanoma [1]): increased survival of mice | anti-tumor response: tumor size (B16.OVA melanoma [1]): reduction of tumor size | anti-tumor response of OT-I T cells primed in vivo (B16.OVA melanoma [2]): superior in mediating an anti-tumor response
